Reference: patent US8268823B2, “Medical use of triazine derivatives” (University of Greenwich, priority 2006, dated 2012)
Values joined by “and” are separate entries in the source; they are usually repeats but may differ in a detail not shown here. Equal values may be shown once. Read-outs that look alike come from different tables or passages of the source.

Legend:
sodium channel [1] = format: binding, rat
[2] = biological target: T1, DiHydroFolate Reductase (DHFR) (Rattus norvegicus, UniProt Q920D2); test: inhibition of binding of [3H]methotrexate to rat liver homogenate supernatant; conditions: for inhibition at 50 µM / inhibition at 10 µM / inhibition at 99 µM: read-out: [3H]methotrexate binding Inhibition (% @ assay conc'n); for inhibition at 50 µM: assay concentration 50 μM; for inhibition at 99 µM: assay concentration 99 μM
T1 construct: from tissue; host or cells: rat liver homogenate supernatant (47,500 x g)
T1 sequence (Q920D2 1-187): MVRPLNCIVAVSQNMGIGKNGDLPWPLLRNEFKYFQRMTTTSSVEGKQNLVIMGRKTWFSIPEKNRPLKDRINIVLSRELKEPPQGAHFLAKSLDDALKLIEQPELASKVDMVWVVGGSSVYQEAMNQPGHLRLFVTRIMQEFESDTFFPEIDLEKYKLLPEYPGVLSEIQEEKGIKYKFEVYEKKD

sodium channel [3] = test: veratrine-evoked uptake of [14C]guanidine into rat forebrain synaptosomes ([14C]guanidine flux); format: biochemical
hERG potassium channel [4] = biological target: T2, hERG potassium channel (Homo sapiens, UniProt Q12809); test: in vitro
T2 sequence (Q12809 whole entry): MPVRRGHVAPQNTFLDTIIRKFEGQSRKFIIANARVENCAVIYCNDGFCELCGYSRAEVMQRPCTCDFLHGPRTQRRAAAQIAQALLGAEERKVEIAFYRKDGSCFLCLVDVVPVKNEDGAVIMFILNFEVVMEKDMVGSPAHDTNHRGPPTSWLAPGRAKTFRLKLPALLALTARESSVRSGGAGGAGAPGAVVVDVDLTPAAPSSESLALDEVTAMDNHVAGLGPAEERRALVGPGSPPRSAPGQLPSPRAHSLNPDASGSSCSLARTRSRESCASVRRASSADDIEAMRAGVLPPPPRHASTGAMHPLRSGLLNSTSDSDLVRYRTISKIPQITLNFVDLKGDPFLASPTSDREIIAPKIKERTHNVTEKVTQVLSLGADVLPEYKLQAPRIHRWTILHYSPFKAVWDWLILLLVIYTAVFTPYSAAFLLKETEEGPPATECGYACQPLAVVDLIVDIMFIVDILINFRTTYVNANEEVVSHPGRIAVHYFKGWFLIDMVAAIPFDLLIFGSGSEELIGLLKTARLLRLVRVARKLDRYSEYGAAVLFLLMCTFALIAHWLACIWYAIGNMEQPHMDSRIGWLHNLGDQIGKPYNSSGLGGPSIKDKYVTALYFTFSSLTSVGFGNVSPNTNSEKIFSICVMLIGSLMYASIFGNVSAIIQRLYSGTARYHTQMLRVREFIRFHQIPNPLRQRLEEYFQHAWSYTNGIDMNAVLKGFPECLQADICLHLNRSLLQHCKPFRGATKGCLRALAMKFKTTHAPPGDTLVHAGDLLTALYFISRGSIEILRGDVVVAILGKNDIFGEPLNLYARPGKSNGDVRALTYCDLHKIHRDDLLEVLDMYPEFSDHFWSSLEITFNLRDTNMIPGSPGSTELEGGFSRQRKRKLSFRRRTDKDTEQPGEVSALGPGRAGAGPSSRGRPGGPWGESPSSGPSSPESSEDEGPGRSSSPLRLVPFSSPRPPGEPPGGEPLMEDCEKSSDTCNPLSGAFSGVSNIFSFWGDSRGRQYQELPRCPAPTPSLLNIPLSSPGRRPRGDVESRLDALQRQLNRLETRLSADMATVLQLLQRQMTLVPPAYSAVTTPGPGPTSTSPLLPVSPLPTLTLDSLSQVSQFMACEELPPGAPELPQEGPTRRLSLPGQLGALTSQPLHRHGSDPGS

hERG potassium channel [5] = biological target: T2, hERG potassium channel
hERG potassium channel [6] = biological target: T2, hERG potassium channel; test: inhibition of binding of [3H]astemizole to cell membranes expressing hERG
[7] = Table 4, tissue prep'n Synaptosomes, read-out: [3H]BTX-B binding Mean (IC50: μM)
[8] = Table 3, rat forebrain synaptosomes, read-out: [14C]guanidine flux Mean (IC50: μM)
[9] = Table 4, tissue prep'n Homogenate, read-out: [3H]BTX-B binding Mean (IC50: μM)

Structure (SMILES) | melting point | IC50 (sodium channel [1]; [7]) | IC50 (sodium channel [3]; [8]) | inhibition at 50 µM [2] | IC50 (sodium channel [1]; [9]) | inhibition at 10 µM ([2]; assay concentration 10 μM) | inhibition at 99 µM [2] | further results
Nc1nnc(-c2cccc(F)c2Cl)c(N)n1 [Example 40, 2-chloro-3-fluorophenyl-1,2,4-triazine-3,5-diamine] | 244 to 246 °C | 283 µM | 834 µM | – | – | – | – | IC50 ([2]; rat liver supernatant): 589 µM
Nc1nnc(-c2cc(Cl)cc(Cl)c2)c(N)n1 [Example 42, 3,5-Diamino-6-(3,5-dichlorophenyl)-1,2,4-triazine] | 223 to 225 °C | – | 155 µM | 99% | – | – | – | –
CC(C)n1nc(-c2cccc(Cl)c2Cl)c(N)nc1=N [Example 4, 5(3)-Amino-6-(2,3-dichlorophenyl)-2,3(2,5)-dihydro-3(5)-imino-2-isopropyl-1,2,4-triazine] | – | 1.5 µM | 4 µM | – | 0.6 µM | -1% | 0% | inhibition at 10 µM (hERG potassium channel [4]; hERG % inhibition @ 10 μM): 35%; selectivity ratio (hERG potassium channel [4]; hERG / [14C]guanidine flux selectivity): 6.6; hERG / [14C]guanidine flux selectivity (hERG potassium channel [5]; human): 6.7; IC50 (hERG potassium channel [6]): 18.6 µM and 19.4 µM
Nc1nnc(-c2cc(Cl)ccc2Cl)c(N)n1 [Example 41, 3,5-Diamino-6-(2,5-dichlorophenyl)-1,2,4-triazine] | 228 to 230 °C | – | 525 µM | 93% | – | – | – | –
N=c1nc(N)c(-c2cccc(Cl)c2Cl)nn1CCO [Example 5, 5(3)-Amino-6-(2,3-dichlorophenyl)-2,3(2,5)-dihydro-3(5)-imino-2-(2-hydroxyethyl)-1,2,4-triazine] | – | 25.7 µM | 172 µM | – | 7.2 µM | – | – | IC50 (hERG potassium channel [5]): 7.2 µM; hERG / [14C]guanidine flux selectivity (hERG potassium channel [5]): 3.5; IC50 (sodium channel [1]; Table 5, Synaptosome data, read-out: [3H]BTX-B IC50): 1.7 µM; hERG / [3H]BTX-B selectivity (hERG potassium channel [6]; ratio of extrapolated hERG IC50 to [3H]BTX-B IC50 (synaptosomes)): 4.3; [3H]methotrexate binding Inhibition (% @ assay conc'n) ([2]; assay concentration 10 μM): −1%; [3H]methotrexate binding Inhibition (% @ assay conc'n) ([2]; assay concentration 101 μM): 1%; IC50 (sodium channel [3]; Table 5, read-out: [14C]guanidine flux IC50): 2.1 µM
COc1ccc(Cn2nc(-c3cccc(Cl)c3Cl)c(N)nc2=N)cc1 [Example 19, 5(3)-Amino-6-(2,3-dichlorophenyl)-2,3(2,5)-dihydro-3(5)-imino-2-(4-methoxy)phenylmethyl-1,2,4-triazine] | 212 to 215 °C | – | 5 µM | – | – | -2% | -3% | –
